Experimental findings from patent publication US8618286B2, “Benzoxazines, benzothiazines, and related compounds having NOS inhibitory activity” (NeurAxon, Inc., priority 2008, dated 2013) are described below.

Counter-ions that a name gives are not always drawn.

What all share (format): biochemical
Assay [1] addresses Recombinant human inducible NOS (iNOS) (Homo sapiens (Human), UniProt P35228). Description: Human iNOS enzyme assay (Protocol 1 or Protocol 2, radiometric). As to the method:
The human iNOS assay was carried by either one of the two protocols as described herein:
Recombinant human inducible NOS (iNOS) was produced in Baculovirus-infected Sf9 cells (ALEXIS). In a radiometric method, NO synthase activity was determined by measuring the conversion of [^3H]L-arginine to [^3H]L-citrulline. To measure iNOS, 10 μL of enzyme was added to 100 μL of 100 mM HEPES, pH=7.4, containing 1 mM CaCl2, 1 mM EDTA, 1 mM dithiothreitol, 1 μM FMN, 1 μM FAD, 10 μM tetrahydrobiopterin, 120 μM NADPH, and 100 nM CaM.
To measure enzyme inhibition, a 15 μL solution of a test substance was added to the enzyme assay solution, followed by a pre-incubation time of 15 min at RT. The reaction was initiated by addition of 20 μL L-arginine containing 0.25 μCi of [^3H] arginine/mL and 24 μM L-arginine. The total volume of the reaction mixture was 150 μL in every well. The reactions were carried out at 37° C. for 45 minutes, The reaction was stopped by adding 20 μL of ice-cold buffer containing 100 mM HEPES, 3 mM EGTA, 3 mM EDTA, pH=5.5. [^3H]L-citrulline was separated by DOWEX (ion-exchange resin DOWEX 50 W×8-400, SIGMA) and the DOWEX was removed by spinning at 12,000 g for 10 min in the centrifuge. An aliquot (70 μL) of the supernatant was added to 100 μL of scintillation fluid, and the samples were counted in a liquid scintillation counter (1450 Microbeta Jet, Wallac). Specific NOS activity was reported as the difference between the activity recovered from the test solution and that observed in a control sample containing 240 mM of the inhibitor L-NMMA. All assays were performed at least in duplicate. Standard deviations are 10% or less.
Primary stock solutions of each test compound were prepared in distilled water on the day of study to obtain a final concentration of 6 mM. For the determination of IC50 values, 11 test compound concentrations were prepared as 3-fold serial dilutions. Test compounds were tested in the iNOS assay at a concentration of 1000 μM to 0.0169 μM. The vehicle of the test compound or inhibitor, distilled water, was used as blank control. For non-specific activity, 100 μM L-NMMA was run in parallel as a control.
All incubations were performed in duplicate
The reaction mixture was prepared on ice by the addition of the following components to the appropriate well of a 1.0 mL 96-well polypropylene plate:
10 μL of test compound, reference inhibitor, or control (vehicle or L-NMMA) solution;
25 μL of Reaction Buffer (50 mM Tris-HCl, 6 μM BH4, 2 μM FMN, 2 μM FAD);
5 μL of 10 mM NADPH solution;
5 μL of 1 μM Calmodulin; and
The reaction mixture was pre-incubated at room temperature for 15 minutes. Following this pre-incubation, the reaction was initiated by the addition of 5 μL of the substrate L-arginine (1 μCi of [^3H]-L-Arginine+30 μM of unlabeled L-Arginine) to the reaction mixture. The total reaction volume was 60 μL. The assay plate containing the reaction mixtures was sealed and incubated at 37° C. for 30 minutes. At the end of this incubation period, 400 μL of ice-cold Stop Buffer (the EDTA in the Stop Buffer chelates all of the available calcium) was added to each well to stop the reaction. 100 μL of equilibrated resin pH 5.5 was added to each of the assay wells. The reaction samples were vortexed and transferred to spin cups, after-which they were centrifuged at 13,000 rpm for 30 sec. The spin cups were removed from the holder and […] (containing the unbound L-citrulline) were added to the appropriate wells of a 96-well liquid scintillation plate. 175 μL of scintillation fluid were also added to each well. The plate was sealed, and radioactivity was quantitated using a Microbeta liquid scintillation counter.
Data were analyzed using a Sigmoidal dose-response (variable slope) curve to determine the IC50 value of the test compound. Y=Bottom+(Top−Bottom)/(1+10^((Log IC50−X)*Hill Slope))

Assay [2] concerns the target Nitric oxide synthase (endothelial, human recombinant) eNOS (Homo sapiens (Human), UniProt P29474). Description: Human eNOS enzyme assay ([3H]-L-arginine to L-citrulline conversion). As to the method:
(§1) nNOS (Human), eNOS (Human) and iNOS (Human) Enzyme Assay
(§2) Primary stock solutions of test compounds at a concentration of 6 mM were prepared from the 2 to 5 mg powder. The primary stock solutions of each test compound were prepared freshly in distilled water on the day of study to obtain a final concentration of 6 mM. For determination of IC50 values, 12 test compound concentrations were prepared as 3-fold serial dilutions. Concentration range of test compound utilized for nNOS were 0.001 to 300 μM and for eNOS were 0.003 to 1000 μM. The vehicle of the test compound or inhibitor was used as blank control. For non-specific activity, 100 μM L-NMMA was used. Runs using the IC50 concentration of L-NAME were done in parallel as controls.
(§3) All incubations are performed in duplicate
(§4) The reaction mixture was prepared on ice by adding the following components with a micropipette to a polypropylene microcentrifuge tube: • 10 μL of test compound, inhibitor or control (vehicle or L-NMMA) solution; • 25 μL of Reaction Buffer {25 mM Tris-HCl, 0.6 μM BH4, 0.2 μM FMN, 0.2 μM FAD}; • 5 μL of 10 mM NADPH solution {1 mM} (freshly prepared in 10 mM Tris-HCl (pH 7.4); • 5 μL of 6 mM CaCl2 {600 W}; • 5 μL of 1 mM Calmodulin {100 W}; and • 5 μL of 0.02 μg/μL nNOS or 0.12 μg/μL eNOS.
(§5) The above reaction mixture was pre-incubated at room temperature for 15 mins.
(§6) The reaction was started by the addition of the substrate (in 5 μL containing 1 μCi of [^3H]-L-Arginine+2.5 μM of unlabeled L-Arginine) to the reaction mixture. Total reaction volume is 60 μL.
(§7) The reaction was mixed using a vortex mixer and incubate the above reaction mixture at 37° C. in an incubator for 30 minutes.
(§8) To stop the reaction, 400 μL of ice-cold Stop Buffer was added at the end of the incubation period.
(§9) The reaction was then mixed using a vortex mixer, and the reaction samples were transferred to spin cups, which were centrifuged using a microcentrifuge, at 13,000 rpm for 30 sec. at room temperature.
(§10) The spin cups were removed from the holder, 450 μL of eluate (containing the unbound L-citrulline) were transferred to scintillation vials. 3 mL of scintillation fluid were added and the radioactivity was quantified in a liquid scintillation counter.
(§11) Data was analyzed using a Sigmoidal dose-response (variable slope) curve to determine the IC50 value of the test compound. Y=Bottom+(Top−Bottom)/(1+10^((Log IC50−X)*Hill Slope))

Assay [3] deals with Nitric oxide synthase (neuronal, human recombinant) nNOS (Homo sapiens (Human), UniProt P29475). Description: Human nNOS enzyme assay ([3H]-L-arginine to L-citrulline conversion). The conditions noted are these: for Selectivity eNOS/nNOS: ratio of human eNOS IC50 to human nNOS IC50; for IC50: recombinant human nNOS. As to the method:
as §1, §2, §3, §4, §5, §6, §7, §8, §9, §10, §11

Take `CN(C)CCN1CCOc2ccc(NC(=N)c3cccs3)cc21` [Compound 9, N-(4-(2-(dimethylamino)ethyl)-3,4-dihydro-2H-benzo[b][1,4]oxazin-6-yl)-thiophene-2-carboximidamide]: the results for the half-maximal inhibitory concentration (IC50) in assay [1], in assay [2] and in assay [3] were 7.25 µM, 36.5 µM and 0.2 µM, respectively. In addition, the “Selectivity eNOS/nNOS” value in assay [3] is recorded as 182.5.

Regarding `CCN(CC)CCN1CCSc2cc(NC(=N)c3cccs3)ccc21` [Compound 15, N-(4-(2-(Diethylamino)ethyl)-3,4-dihydro-2H-benzo[b][1,4]thiazin-7-yl)thiophene-2-carboximidamide], the IC50 amounted to 40.7 µM in assay [1], 20.1 µM in assay [2] and 0.15 µM in assay [3]. In addition, the “Selectivity eNOS/nNOS” value in assay [3] is on record as 134.

For the compound `CN1CCCC1CCN1CCSc2cc(NC(=N)c3cccs3)ccc21` (stereo not drawn) [Compound 13, N-(4-(2-(1-methylpyrrolidin-2-yl)ethyl)-3,4-dihydro-2H-benzo[b][1,4]thiazin-7-yl)thiophene-2-carboximidamide], the IC50 was found to be 33.1 µM in assay [1], 9.92 µM in assay [2] and 0.19 µM in assay [3]. Moreover, the “Selectivity eNOS/nNOS” value in assay [3] is on record as 52.2.

Turning to `CNCCN1CCOc2ccc(NC(=N)c3cccs3)cc21` [Compound 10, N-(4-(2-(methylamino)ethyl)-3,4-dihydro-2H-benzo[b][1,4]oxazin-6-yl)-thiophene-2-carboximidamide dihydrochloride], the figures for the IC50 in assay [1], in assay [2] and in assay [3] were 3.74 µM, 3.82 µM and 0.08 µM, respectively. Also, the “Selectivity eNOS/nNOS” value in assay [3] is reported as 47.7.

Turning to `CN(C)CCN1CCSc2cc(NC(=N)c3cccs3)ccc21` [Compound 12, N-(4-(2-(Dimethylamino)ethyl)-3,4-dihydro-2H-benzo[b][1,4]thiazin-7-yl)thiophene-2-carboximidamide dihydrochloride], the results for the IC50 in assay [1], in assay [2] and in assay [3] were 62.9 µM, 19.1 µM and 0.12 µM, respectively. In addition, the “Selectivity eNOS/nNOS” value in assay [3] came to 159.1.

`CN(C)CCN1CCOc2cc(NC(=N)c3cccs3)ccc21` [Compound 6, N-(4-(2-(dimethylamino)ethyl)-3,4-dihydro-2H-benzo[b][1,4]oxazin-7-yl)thiophene-2-carboximidamide]: the IC50 in assay [1] was 10.9 µM; in assay [2], 41.7 µM; in assay [3], 0.2 µM. In assay [3], the “Selectivity eNOS/nNOS” value is listed as 208.5.

As to `N=C(Nc1ccc2c(c1)SCCN2CCNCCO)c1cccs1` [Compound 16, N-(4-(2-(2-hydroxyethylamino)ethyl)-3,4-dihydro-2H-benzo[b][1,4]thiazin-7-yl)thiophene-2-carboximidamide dihydrochloride], the results for the IC50 in assay [1], in assay [2] and in assay [3] were 58.7 µM, 7 µM and 0.034 µM, respectively. In addition, the “Selectivity eNOS/nNOS” value in assay [3] is recorded as 205.

As to `CNCCN1CCSc2cc(NC(=N)c3ccco3)ccc21` [Compound 20, N-(4-(2-(methylamino)ethyl)-3,4-dihydro-2H-benzo[b][1,4]thiazin-7-yl)furan-2-carboximidamide], the IC50 in assay [1] came to 268 µM; in assay [2] it was 46.4 µM; in assay [3] it was 0.16 µM. Besides, the “Selectivity eNOS/nNOS” value in assay [3] stood at 290.

Regarding `N=C(Nc1ccc2c(c1)N(CCN1CCCC1)CCS2)c1cccs1` [Compound 25, N-(4-(2-(pyrrolidin-1-yl)ethyl)-3,4-dihydro-2H-benzo[b][1,4]thiazin-6-yl)thiophene-2-carboximidamide], the IC50 worked out at 43.6 µM in assay [1], 18.1 µM in assay [2] and 0.2 µM in assay [3]. The “Selectivity eNOS/nNOS” value in assay [3] is 90.5.

On to `N=C(Nc1ccc2c(c1)SCCN2CCN1CCCCC1)c1cccs1` [Compound 14, N-(4-(2-(Piperidin-1-yl)ethyl)-3,4-dihydro-2H-benzo[b][1,4]thiazin-7-yl)thiophene-2-carboximidamide], for which the IC50 came to 172 µM in assay [1], 11.5 µM in assay [2] and 0.14 µM in assay [3]. In addition, the “Selectivity eNOS/nNOS” value in assay [3] was found to be 82.1.

Consider `CN1CCCC1CCN1C(=O)COc2cc(NC(=N)c3cccs3)ccc21` (stereo not drawn) [Compound 1], for which, in assay [3], the “Selectivity eNOS/nNOS” value amounted to 41.9.

As for `CN(C)CCN1CCSc2ccc(NC(=N)c3cccs3)cc21` [Compound 27, N-(4-(2-(dimethylamino)ethyl)-3,4-dihydro-2H-benzo[b][1,4]thiazin-6-yl)thiophene-2-carboximidamide], the IC50 came out at 66.5 µM in assay [1], 34.9 µM in assay [2] and 0.13 µM in assay [3]. In addition, the “Selectivity eNOS/nNOS” value in assay [3] amounted to 268.4.

With `CN1CCCC1CCN1CCOc2cc(NC(=N)c3cccs3)ccc21` (stereo not drawn) [Compound 2], the “Selectivity eNOS/nNOS” value in assay [3] was 25.3.

As for `N=C(Nc1ccc2c(c1)N(C1CCNCC1)CCS2)c1cccs1` [Compound 29, N-(4-(piperidin-4-yl)-3,4-dihydro-2H-benzo[b][1,4]thiazin-6-yl)thiophene-2-carboximidamide], the IC50 in assay [1] stood at 76.8 µM; in assay [2], 43.6 µM; in assay [3] it was 0.11 µM. Also, the “Selectivity eNOS/nNOS” value in assay [3] is given as 396.

Turning to `CN(C)CCN1C(=O)COc2cc(NC(=N)c3cccs3)ccc21` [Compound 5, N-(4-(2-(Dimethylamino)ethyl)-3-oxo-3,4-dihydro-2H-benzo[b][1,4]oxazin-7-yl)thiophene-2-carboximidamide], the values for the IC50 in assay [1], in assay [2] and in assay [3] were more than 100 µM, 47 µM and 1.84 µM, respectively. The “Selectivity eNOS/nNOS” value in assay [3] amounted to 25.5.

Usually IC50 stands for the concentration at which inhibition is half-maximal.
